From patent publication EP3046573B1, “AMYLIN ANALOGUES” (Zealand Pharma A/S, priority 2013, dated 2015)
Numbered stars: 1 amine (or outer) side, 2 acyl side, 3 side chain; on linkers, the order of the positions; unused ones are H or OH. Bridge positions count the residues as written; N and C are the ends. Square brackets hold non-standard residues; d marks the D form. Peptide text beside a SMILES is read from it. * marks the point of attachment. C20 diacid = O=C(O)CCCCCCCCCCCCCCCCCCC(=O)*; γGlu = O=C(O)[C@H](CCC(=O)[*:2])N[*:1]; NMeI = CC[C@H](C)[C@H](NC)C(=O)O; Sar = CNCC(=O)O

Assay: Pharmacokinetic (PK) profiling in rats
Type: in vivo
Conditions: male, Sprague Dawley, rat, plasma, single sc bolus, 100 nmol/kg (18, NN96), 20 nmol/kg (72, 76), 30 nmol/kg (73, 82, 118, 162, 166, 172); for CL/F: apparent clearance; for half-life: terminal elimination half-life, read-out: t½ (converted)
Description: Sprague Dawley male rats were given a single subcutaneous (sc) bolus of each peptide to be tested at doses as specified below..
Study A: Following the administration of a 100 nmol/kg dose of a test peptide of the invention (Compound 18) and a comparison pramlintide analogue NN96 (see Example 5, above), respectively, blood samples were drawn from the tail vein at 0.5, 3, 8, 15, 36, 60 and 81 hours post-dosing. 4 rats were used (2 rats per compound). The rats were euthanized immediately after the last blood sampling by overdose of O2/CO2.
Study B: 20 nmol/kg doses of Compound 72 and Compound 76, respectively, of the invention were administered. Blood samples were drawn by sublingual bleeding prior to dosing and at 2, 6, 12, 24, 48, 72 and 96 hours after dosing. 4 rats were used (2 rats per compound). The rats were euthanized immediately after the last blood sampling by overdose of O2/CO2.
Study C: 30 nmol/kg doses of Compound 73, Compound 82 and Compound 118, respectively, of the invention were administered. Blood samples were drawn from the tail vein prior to dosing and at 24, 48, 72 and 96 hours after dosing. Blood samples were taken from two rats at each time point, and only 2 blood samples were drawn from each rat, i.e. 8 rats were used for each compound. The rats were euthanized immediately after the last blood sampling by concussion and cervical dislocation.
Study D: 30 nmol/kg doses of Compound 162, Compound 166 and Compound 172 were administered. Blood samples were drawn from the tail vein prior to dosing and at 24, 48, 72, 96 and 168 hours after dosing. Blood samples were taken from two rats at each time point, and only 2 blood samples were drawn from each rat, i.e. 10 rats were used for each compound. The rats were euthanized immediately after the last blood sampling by concussion and cervical dislocation.
The dosing vehicle used for each test peptide was a mannitol-containing histidine buffer (pH 7.0). Plasma samples were analyzed after precipitation with ethanol by liquid chromatography mass spectrometry (LC-MS/MS). Mean plasma concentrations were used for calculation of the pharmacokinetic parameters using the non-compartmental approach in Phoenix WinNonlin 6.3.
Plasma terminal elimination half-life (t½) was determined as In(2)/λz, where λz is the magnitude of the slope of the log linear regression of the log concentration versus time profile during the terminal phase. Apparent clearance (CL/F) was determined as dose/AUCinf (sc), where AUCinf is the area under the plasma concentration vs. time curve extrapolated to infinity (AUCinf = AUClast + Clast/λz, where Clast is the last observed plasma concentration).

| CL/F | half-life | SMILES |
| --- | --- | --- |
| 3.06 mL/h/kg | 55.4 h | CC[C@H](C)[C@@H](C(=O)N[C@@H](CC(C)C)C(=O)N[C@@H](CO)C(=O)N[C@@H](CO)C(=O)N[C@H](C(=O)N[C@@H](CC(=O)O)C(=O)N[C@H](C(=O)NCC(=O)N[C@@H](CO)C(=O)N[C@@H](CC(=O)O)C(=O)N[C@H](C(=O)N1CCC[C@H]1C(N)=O)[C@@H](C)O)C(C)C)[C@@H](C)O)N(C)C(=O)[C@H](C)NC(=O)CN(C)C(=O)[C@H](Cc1ccccc1)NC(=O)[C@H](CO)NC(=O)[C@H](CO)NC(=O)[C@H](CO)NC(=O)[C@H](CO)NC(=O)[C@H](CCCNC(=N)N)NC(=O)[C@H](Cc1c[nH]cn1)NC(=O)[C@H](CC(C)C)NC(=O)[C@H](Cc1ccccc1)NC(=O)[C@H](CCC(=O)O)NC(=O)[C@H](C)NC(=O)[C@H](CC(C)C)NC(=O)[C@H](CCCNC(=N)N)NC(=O)[C@H](CCC(N)=O)NC(=O)[C@@H](NC(=O)[C@H](C)NC(=O)[C@@H]1CSSC[C@H](NC(=O)[C@H](CCCNC(=N)N)NC(=O)CC[C@H](NC(=O)CCCCCCCCCCCCCCCCCCC(=O)O)C(=O)O)C(=O)N[C@@H](CC(N)=O)C(=O)N[C@@H]([C@@H](C)O)C(=O)N[C@@H](C)C(=O)N[C@@H]([C@@H](C)O)C(=O)N1)[C@@H](C)O [Compound 73, [19CD]-isoGlu-RC()NTATC()ATQRLAEFLHRSSSSF-Gly(Me)-A-Ile(Me)-LSSTDVGSDTP-NH2] ({C20 diacid-γGlu}-RCNTATCATQRLAEFLHRSSSSF[Sar]A[NMeI]LSSTDVGSDTP-NH2; disulfide 2-7) |
| 3.53 mL/h/kg | 37.3 h | CC[C@H](C)[C@@H](C(=O)N[C@@H](CC(C)C)C(=O)N[C@@H](CO)C(=O)N[C@@H](CO)C(=O)N[C@H](C(=O)N[C@@H](CCC(=O)O)C(=O)N[C@H](C(=O)NCC(=O)N[C@@H](CO)C(=O)N[C@@H](CCC(=O)O)C(=O)N[C@H](C(=O)N1CCC[C@H]1C(N)=O)[C@@H](C)O)C(C)C)[C@@H](C)O)N(C)C(=O)[C@H](C)NC(=O)CN(C)C(=O)[C@H](Cc1ccccc1)NC(=O)[C@H](CO)NC(=O)[C@H](CO)NC(=O)[C@H](CO)NC(=O)[C@H](CO)NC(=O)[C@H](CCCNC(=N)N)NC(=O)[C@H](Cc1c[nH]cn1)NC(=O)[C@H](CC(C)C)NC(=O)[C@H](Cc1ccccc1)NC(=O)[C@H](CCC(=O)O)NC(=O)[C@H](C)NC(=O)[C@H](CC(C)C)NC(=O)[C@H](CCCNC(=N)N)NC(=O)[C@H](CCC(N)=O)NC(=O)[C@@H](NC(=O)[C@H](C)NC(=O)[C@@H]1CSSC[C@H](NC(=O)[C@H](CCCNC(=N)N)NC(=O)CC[C@H](NC(=O)CCCCCCCCCCCCCCCCCCC(=O)O)C(=O)O)C(=O)N[C@@H](CC(N)=O)C(=O)N[C@@H]([C@@H](C)O)C(=O)N[C@@H](C)C(=O)N[C@@H]([C@@H](C)O)C(=O)N1)[C@@H](C)O [Compound 76, [19CD]-isoGlu-RC()NTATC()ATQRLAEFLHRSSSSF-Gly(Me)-A-Ile(Me)-LSSTEVGSETP-NH2] ({C20 diacid-γGlu}-RCNTATCATQRLAEFLHRSSSSF[Sar]A[NMeI]LSSTEVGSETP-NH2; disulfide 2-7) |
| 3.51 mL/h/kg | 56.4 h | CC[C@H](C)[C@@H](C(=O)N[C@@H](CC(C)C)C(=O)N[C@@H](CO)C(=O)N[C@@H](CO)C(=O)N[C@H](C(=O)N[C@@H](CCC(=O)O)C(=O)N[C@H](C(=O)NCC(=O)N[C@@H](CO)C(=O)N[C@@H](CCC(=O)O)C(=O)N[C@H](C(=O)N1CCC[C@H]1C(N)=O)[C@@H](C)O)C(C)C)[C@@H](C)O)N(C)C(=O)[C@H](C)NC(=O)CN(C)C(=O)[C@H](Cc1ccccc1)NC(=O)[C@H](CO)NC(=O)[C@H](CO)NC(=O)[C@H](CO)NC(=O)[C@H](CO)NC(=O)[C@H](CCCNC(=N)N)NC(=O)[C@H](Cc1c[nH]cn1)NC(=O)[C@H](CC(C)C)NC(=O)[C@H](Cc1ccccc1)NC(=O)[C@H](CCC(=O)O)NC(=O)[C@H](C)NC(=O)[C@H](CC(C)C)NC(=O)[C@H](CCCNC(=N)N)NC(=O)[C@H](C)NC(=O)[C@@H](NC(=O)[C@H](C)NC(=O)[C@@H]1CSSC[C@H](NC(=O)[C@H](CCCNC(=N)N)NC(=O)CC[C@H](NC(=O)CCCCCCCCCCCCCCCCCCC(=O)O)C(=O)O)C(=O)N[C@@H](CC(N)=O)C(=O)N[C@@H]([C@@H](C)O)C(=O)N[C@@H](C)C(=O)N[C@@H]([C@@H](C)O)C(=O)N1)[C@@H](C)O [Compound 118, [19CD]-isoGlu-RC()NTATC()ATARLAEFLHRSSSSF-Gly(Me)-A-Ile(Me)-LSSTEVGSETP-NH2] ({C20 diacid-γGlu}-RCNTATCATARLAEFLHRSSSSF[Sar]A[NMeI]LSSTEVGSETP-NH2; disulfide 2-7) |
| 5.92 mL/h/kg | 29.8 h | CC[C@H](C)[C@@H](C(=O)N[C@@H](CC(C)C)C(=O)N[C@@H](CO)C(=O)N[C@@H](CO)C(=O)N[C@H](C(=O)N[C@@H](CCC(=O)O)C(=O)N[C@H](C(=O)NCC(=O)N[C@@H](CO)C(=O)N[C@@H](CCC(=O)O)C(=O)N[C@H](C(=O)N1CCC[C@H]1C(N)=O)[C@@H](C)O)C(C)C)[C@@H](C)O)N(C)C(=O)[C@H](C)NC(=O)CN(C)C(=O)[C@H](Cc1ccccc1)NC(=O)[C@H](CO)NC(=O)[C@H](CO)NC(=O)[C@H](CCCNC(=N)N)NC(=O)[C@H](Cc1c[nH]cn1)NC(=O)[C@H](CC(C)C)NC(=O)[C@H](Cc1ccccc1)NC(=O)[C@H](CCC(=O)O)NC(=O)[C@H](C)NC(=O)[C@H](CC(C)C)NC(=O)[C@H](CCCNC(=N)N)NC(=O)[C@H](CCC(=O)O)NC(=O)[C@@H](NC(=O)[C@H](C)NC(=O)[C@@H]1CSSC[C@H](NC(=O)[C@H](CCCNC(=N)N)NC(=O)CC[C@H](NC(=O)CCCCCCCCCCCCCCCCCCC(=O)O)C(=O)O)C(=O)NCC(=O)N[C@@H]([C@@H](C)O)C(=O)N[C@@H](C)C(=O)N[C@@H]([C@@H](C)O)C(=O)N1)[C@@H](C)O [Compound 162, [19CD]-isoGlu-RC()GTATC()ATERLAEFLHRSSF-Gly(Me)-A-Ile(Me)-LSSTEVGSETP-NH2] ({C20 diacid-γGlu}-RCGTATCATERLAEFLHRSSF[Sar]A[NMeI]LSSTEVGSETP-NH2; disulfide 2-7) |

| SMILES | CL/F | half-life |
| --- | --- | --- |
| CC[C@H](C)[C@@H](C(=O)N[C@@H](CC(C)C)C(=O)N[C@H](CO)C(=O)N[C@@H](CO)C(=O)N[C@H](C(=O)N[C@@H](CC(N)=O)C(=O)N[C@H](C(=O)NCC(=O)N[C@@H](CO)C(=O)N[C@@H](CC(N)=O)C(=O)N[C@H](C(=O)N1CCC[C@H]1C(N)=O)[C@@H](C)O)C(C)C)[C@@H](C)O)N(C)C(=O)[C@H](C)NC(=O)CN(C)C(=O)[C@@H](Cc1ccccc1)NC(=O)[C@H](CC(N)=O)NC(=O)[C@H](CC(N)=O)NC(=O)[C@H](CO)NC(=O)[C@H](CO)NC(=O)[C@H](CCCNC(=N)N)NC(=O)[C@H](Cc1c[nH]cn1)NC(=O)[C@H](CC(C)C)NC(=O)[C@H](Cc1ccccc1)NC(=O)[C@H](CCC(=O)O)NC(=O)[C@H](C)NC(=O)[C@H](CC(C)C)NC(=O)[C@H](CCCNC(=N)N)NC(=O)[C@H](CCC(N)=O)NC(=O)[C@@H](NC(=O)[C@H](C)NC(=O)[C@@H]1CSSC[C@H](NC(=O)[C@H](CCCCN)NC(=O)CC[C@H](NC(=O)CCCCCCCCCCCCCCCCCCC(=O)O)C(=O)O)C(=O)N[C@@H](CC(N)=O)C(=O)N[C@@H]([C@@H](C)O)C(=O)N[C@@H](C)C(=O)N[C@@H]([C@@H](C)O)C(=O)N1)[C@@H](C)O [Compound 72, [19CD]-isoGlu-KC()NTATC()ATQRLAEFLHRSSNN-DPhe-Gly(Me)-A-Ile(Me)-L-DSer-STNVGSNTP] ({C20 diacid-γGlu}-KCNTATCATQRLAEFLHRSSNN[dF][Sar]A[NMeI]L[dS]STNVGSNTP-NH2; disulfide 2-7) | 2.7 mL/h/kg | 30.9 h |
